Assay results reported in US20200353438A1, “METHOD OF FABRICATING CELL ARRAYS AND USES THEREOF” (StemoniX Inc., priority 2014, published 2020).

Test system: beating H9 embryonic stem cell derived cardiomyocytes
Assay: Drug dosing of beating cardiomyocyte hydrogel array, observed by camera
Type: cell-based
Conditions: 1×16 GelMa array after 3 days incubation, visual camera observation
Method: In one example, a Labcyte Echo Model 555 nano liter sonic dispensing system was used to deliver 2 heart drugs, Satolol an Antiarrhythmic drug and Isoproteronol a […], to the fabricated array. The drugs were diluted to 2.25 uM in cell media nutrient solution to prevent dehydration. The Echo 555 liquid handler revolutionizes liquid handling with acoustic energy. Sound waves eject precisely sized droplets from a source onto a microplate, slide or other surface suspended above the source. […] Fluids are transferred in nanoliter increments. Larger volumes are transferred at the rate of hundreds of droplets per second. By using this non contact method it minimizes any contact that could damage or kill the cells as found in other dispensing methods. It also allows for the use of very small quantities thus allowing users to screen molecules that are scarce or difficult to manufacture thus reducing cost. In addition, the X and Y position of the dispensing head can be precisely located over the N×N array location of interest thereby allowing different locations to have a drug of interest administered.
beating H9 embryonic stem cell derived cardiomyocytes were used on day 25 of differentiation. After disassociation a vial with 1 mL of suspension was produced. […] Within those it was determined that 8.38×10^5 live cells were present with tryptan blue. […]

Row | Structure (SMILES) | effect on refectory period (pause in beating) of irregularly beating heart cells | increase in the heart cells beating (dosing with 10 nM)
1 | CC(C)NCC(O)c1ccc(O)c(O)c1 (centres unmarked) [Isoproteronol] | removed the refectory period (pause in beating) of some irregularly beating heart cells | –
2 | CC(C)NCC(O)c1ccc(NS(C)(=O)=O)cc1 (centres unmarked) [Satolol] | – | 30-40%
